Test results from PMC8881069, “Thio- and selenosemicarbazones as antiprotozoal agents against Trypanosoma cruzi and Trichomonas vaginalis” (Journal of Enzyme Inhibition and Medicinal Chemistry, 2022).

Columns and labels:
[1] = test system: L929 cells; assay: Unspecific cytotoxicity assay on L929 fibroblasts (resazurin); type: cell-based; conditions: mean ± SD, n = 3; for CC50 at 72 h: mouse; for CC50: 72 h
[2] = test system: Trypanosoma cruzi Y (DTU TcII) epimastigotes; assay: Y strain epimastigote susceptibility assay (resazurin); type: cell-based; conditions: T. cruzi Y strain epimastigotes, 48 h, mean ± SD, n = 3
[3] = test system: J774 cells; assay: Unspecific cytotoxicity assay on J774 macrophages (resazurin); type: cell-based, mouse; conditions: mean ± SD, n = 3; for CC50 at 48 h: mouse
[4] = test system: Trypanosoma cruzi CL-B5 (DTU TcVI) epimastigotes; assay: CL-B5 lacZ epimastigote susceptibility assay (CPRG); type: cell-based; conditions: T. cruzi CL-B5 lacZ epimastigotes, 72 h, mean ± SD, n = 3
[5] = test system: Trypanosoma cruzi CL-B5 amastigotes; assay: CL-B5 lacZ intracellular amastigote susceptibility assay (CPRG); type: cell-based; conditions: intracellular amastigotes in L929 cells, 7 days, mean ± SD, n = 3
[6] = test system: Trichomonas vaginalis; assay: Trichomonacidal in vitro assay (resazurin); type: cell-based; conditions: isolate JH31A#4, 24 h, brackets: 95% confidence interval
[7] = test system: Vero cells; assay: Unspecific cytotoxicity assay in Vero cells (resazurin); type: cell-based, African green monkey; conditions: for CC50 at 24 h: African green monkey; for CC50 at 24 h / CC50: Vero cells, brackets: 95% confidence interval, 24 h; for unspecific cytotoxicity towards Vero cells (in words): highest concentration evaluated (300 µM)
[8] = test system: hydrogenosome membrane potential of T. vaginalis; assay: Hydrogenosomal membrane potential assay (JC-1); conditions: Figure 3; 4 h; 51 and 63 at 100 µM, MTZ 24 µM, CCCP 50 µM
[9] = Vero CCL-81 cells (kidney epithelial cells)

| Structure (SMILES) | CC50 at 72 h [1] [µM] | IC50 ([4]; Trypanosoma cruzi) [µM] | IC50 ([6]; Trichomonas vaginalis, 24 h) [µM] | further results |
| --- | --- | --- | --- | --- |
| O=C(Cn1ccnc1[N+](=O)[O-])NCc1ccccc1 [Benznidazole, benznidazole, reference compound] | > 256 | 25.3 ± 1.63 | – | IC50 ([2]; Trypanosoma cruzi): 22.7 ± 1.82 µM; CC50 at 48 h [3]: > 256 µM; IC50 ([5]; Trypanosoma cruzi, 168 h): 0.47 ± 0.09 µM |
| COc1ccc(/C=N/NC(=S)Nc2ccc([N+](=O)[O-])cc2)cc1 [Compound 60] | > 256 | > 256 | 155 | – |
| O=[N+]([O-])c1cccc(NC(=S)N/N=C/c2ccc(O)cc2)c1 [Compound 56] | 28.8 ± 3.25 | 36.9 ± 3.84 | 24.3 | CC50 at 24 h [7, 9]: 169 µM |
| Oc1ccc(/C=N/NC(=S)Nc2ccccc2)cc1 [Compound 36] | 46.29 ± 0.15 | 70.9 ± 11 | 74 | – |
| O=[N+]([O-])c1ccccc1NC(=S)N/N=C/c1ccc(O)c(O)c1 [Compound 55] | 21.4 ± 4.12 | 42 ± 9.06 | 133 | – |
| COc1ccc(/C=N/NC(=S)Nc2ccc(I)cc2)cc1 [Compound 51] | > 256 | > 256 | 14.8 | IC50 [6]: 14.8 µM; CC50 at 24 h [7, 9]: ≥ 275 µM; CC50 [7]: > 300 µM; unspecific cytotoxicity towards Vero cells (in words) [7]: did not exhibit unspecific cytotoxicity; JC-1 fluorescence distribution in trophozoites (fluorescence microscopy) [8]: fluorescence restricted to certain regions of the parasite |
| Oc1ccc(/C=N/NC(=S)Nc2ccccc2)cc1O [Compound 38] | 45.2 ± 0.58 | 15.3 ± 2.22 | 88.6 | – |
| Oc1ccc(/C=N/NC(=S)Nc2cccc3ccccc23)cc1 [Compound 63] | – | – | – | CC50 [1]: 31.1 ± 9.21 µM; IC50 [6]: 14.9 µM; CC50 [7]: 275 µM; JC-1 fluorescence distribution in trophozoites (fluorescence microscopy) [8]: fluorescence restricted to certain regions of the parasite; IC50 [4]: 53.6 ± 11.3 µM |
| NNC(=S)Nc1ccc(I)cc1 [Compound 27] | 51 ± 8.88 | 49.8 ± 14.2 | 75.7 | – |
| COc1ccc(/C=N/NC(=S)Nc2ccc(Cl)cc2)cc1 [Compound 46] | 49.7 ± 3.76 | 30.5 ± 4.1 | 32.3 | CC50 at 24 h [7, 9]: > 300 µM |
| Oc1ccc(/C=N/NC(=S)Nc2ccc(Br)cc2)cc1 [Compound 47] | 67 ± 5.43 | 42.8 ± 12 | 52.4 | – |
| Oc1ccc(/C=N/NC(=S)Nc2ccc(F)cc2)cc1O [Compound 45] | 30.5 ± 3.93 | 97.4 ± 5.33 | 226 | – |
| Oc1ccc(/C=N/NC(=[Se])Nc2ccc(Br)cc2)cc1O [Compound 74] | – | – | 11.1 | CC50 at 24 h [7]: 114 µM |
| Cc1ncc([N+](=O)[O-])n1CCO [Metronidazole, metronidazole, reference compound] | – | – | 2.68 | CC50 at 24 h [7, 9]: > 300 µM; JC-1 fluorescence distribution in trophozoites (fluorescence microscopy) [8]: fluorescence restricted to certain regions of the parasite |
| COc1ccc(/C=N/NC(=S)Nc2cccc3ccccc23)cc1 [Compound 64] | – | – | – | CC50 [1]: > 256 µM; IC50 [6]: 30.5 µM; CC50 [7]: > 300 µM; IC50 [4]: > 256 µM |
| COc1ccc(/C=N/NC(=S)Nc2ccc(Br)cc2)cc1 [Compound 48] | > 256 | > 256 | 55.1 | – |
| COc1ccc(/C=N/NC(=[Se])Nc2ccc(I)cc2)cc1 [Compound 75] | – | – | 11 | unspecific cytotoxicity towards Vero cells (in words) [7]: did not present toxic effects at the maximum concentration tested |
| COc1ccc(/C=N/NC(=S)Nc2ccc(C)cc2)cc1 [Compound 40] | > 256 | > 256 | 226 | – |
| O=[N+]([O-])c1ccc(NC(=S)N/N=C/c2ccc(O)cc2)cc1 [Compound 59] | 29.4 ± 2.52 | 76.4 ± 9.91 | 36 | CC50 at 24 h [7, 9]: 254 µM |
| Cc1ccc(NC(=S)N/N=C/c2ccc(O)c(O)c2)cc1 [Compound 41] | 20 ± 1.87 | 119 ± 7.68 | 80.6 | – |
| N#CC(C#N)=NNc1cccc(Cl)c1 [CCCP, m-chlorocarbonylcyanide phenylhydrazone, reference compound] | – | – | – | JC-1 fluorescence distribution in trophozoites (fluorescence microscopy) [8]: provokes a disturbance in the hydrogenosome membrane potential |
| Oc1ccc(/C=N/NC(=S)Nc2ccc(Br)cc2)cc1O [Compound 49] | 16.7 ± 0.7 | 104 ± 15.7 | 11.1 | IC50 [6]: 16.4 µM; CC50 at 24 h [7, 9]: ≥ 275 µM; CC50 [7]: > 300 µM; unspecific cytotoxicity towards Vero cells (in words) [7]: did not exhibit unspecific cytotoxicity |

| Structure (SMILES) | CC50 at 72 h [1] [µM] | IC50 ([4]; Trypanosoma cruzi) [µM] | IC50 ([6]; Trichomonas vaginalis, 24 h) [µM] | further results |
| --- | --- | --- | --- | --- |
| NNC(=S)Nc1cccc([N+](=O)[O-])c1 [Compound 29] | 206 ± 7.25 | 79.9 ± 15.4 | 19.1 | CC50 at 24 h [7, 9]: > 300 µM |
| Cc1ccc(NC(=S)N/N=C/c2ccc(O)cc2)cc1 [Compound 39] | 61 ± 3.72 | 39.6 ± 7.08 | 66.1 | – |
| COc1ccc(NC(=S)N/N=C/c2ccc(O)cc2)cc1 [Compound 42] | 43.3 ± 16.6 | 49.2 ± 9.97 | 64.8 | – |
| O=[N+]([O-])c1ccc(/C=N/NC(=S)Nc2ccc([N+](=O)[O-])cc2)cc1 [Compound 62] | 53.5 ± 4.82 | > 256 | 152 | – |
| COc1ccc(NC(=S)NN)cc1 [Compound 23] | > 256 | 53.5 ± 13 | 256 | IC50 ([2]; Trypanosoma cruzi): 59.9 ± 10.4 µM; CC50 at 48 h [3]: > 256 µM |
| NNC(=S)Nc1ccc(Cl)cc1 [Compound 25] | 67.7 ± 3.16 | 44.2 ± 13.6 | 49.2 | CC50 at 24 h [7, 9]: > 300 µM |
| Oc1ccc(/C=N/NC(=S)Nc2ccc(I)cc2)cc1O [Compound 52] | 20.8 ± 7.92 | 69.4 ± 4.73 | 24.9 | CC50 at 24 h [7, 9]: > 300 µM |
| NNC(=S)Nc1cccc2ccccc12 [Compound 31] | – | – | – | CC50 [1]: > 256 µM; IC50 [6]: 30.2 µM; IC50 [2]: 33.6 ± 5.72 µM; CC50 [7]: > 300 µM; CC50 ([3]; 48 h): > 256 µM; IC50 [4]: 28.7 ± 4.61 µM; IC50 [5]: 39.7 ± 9.91 µM |
| NNC(=S)Nc1ccc([N+](=O)[O-])cc1 [Compound 30] | 23.6 ± 2.84 | 72.5 ± 1.23 | 106 | – |
| COc1ccc(/C=N/NC(=S)Nc2ccc(F)cc2)cc1 [Compound 44] | > 256 | > 256 | > 300 | – |
| NNC(=S)Nc1ccccc1[N+](=O)[O-] [Compound 28] | 210 ± 15.3 | 44.1 ± 5.38 | > 300 | – |
| NNC(=S)Nc1ccc(F)cc1 [Compound 24] | > 256 | 58.8 ± 8.77 | 200 | IC50 ([2]; Trypanosoma cruzi): 97.3 ± 3.45 µM; CC50 at 48 h [3]: > 256 µM |
| COc1ccc(/C=N/NC(=S)Nc2ccccc2)cc1 [Compound 37] | > 256 | – | 167 | IC50 ([2]; Trypanosoma cruzi): 85.1 ± 17.2 µM; CC50 at 48 h [3]: > 256 µM |
| COc1ccc(/C=N/NC(=S)Nc2ccccc2[N+](=O)[O-])cc1 [Compound 54] | > 256 | 210 ± 14.5 | 34.2 | CC50 at 24 h [7, 9]: > 300 µM |
| O=[N+]([O-])c1ccccc1NC(=S)N/N=C/c1ccc(O)cc1 [Compound 53] | 34.9 ± 8.65 | 21.8 ± 2.98 | 92.8 | – |
| COc1ccc(/C=N/NC(=S)Nc2ccc(OC)cc2)cc1 [Compound 43] | > 256 | 26.8 ± 2.68 | 258 | IC50 ([2]; Trypanosoma cruzi): 55.6 ± 16.3 µM; CC50 at 48 h [3]: > 256 µM; IC50 ([5]; Trypanosoma cruzi, 168 h): 39 ± 14.3 µM |
| Oc1ccc(/C=N/NC(=S)Nc2ccc(I)cc2)cc1 [Compound 50] | 41.4 ± 8.36 | 22.8 ± 1.61 | 42.2 | CC50 at 24 h [7, 9]: > 300 µM |
| O=[N+]([O-])c1cccc(NC(=S)N/N=C/c2ccc(O)c(O)c2)c1 [Compound 58] | 12 ± 1.42 | 33.8 ± 7.59 | 73.4 | – |
| COc1ccc(/C=N/NC(=S)Nc2cccc([N+](=O)[O-])c2)cc1 [Compound 57] | > 256 | 23 ± 6.33 | 51.9 | IC50 ([2]; Trypanosoma cruzi): > 256 µM; CC50 at 48 h [3]: > 256 µM; IC50 ([5]; Trypanosoma cruzi, 168 h): 22.3 ± 4.2 µM |
| O=[N+]([O-])c1ccc(NC(=S)N/N=C/c2ccc(O)c(O)c2)cc1 [Compound 61] | 5.37 ± 0.3 | 111 ± 14.8 | 128 | – |
| Oc1ccc(/C=N/NC(=S)Nc2cccc3ccccc23)cc1O [Compound 65] | – | – | – | CC50 [1]: 28.8 ± 7.77 µM; IC50 [6]: 20.1 µM; CC50 [7]: 175 µM; IC50 [4]: 70.2 ± 6.99 µM |
